Data taken from publication PMC4900628, “Critical Evaluation of P2X7 Receptor Antagonists in Selected Seizure Models” (PLoS ONE, 2016).
Where two headings read alike, the source gives them in different places.

Experiments:
Format in all cases: in vivo
[1] = Plasma and brain concentration in mice (co-administration with AEDs); settings: MES-T; for concentration at 30 min: mouse, brain, intraperitoneal, CBZ 7 mg/kg i.p.
Method: Blood was collected intracardially by heart […] pipettes supplemented with heparin-Na (ratiopharm, Ulm, Germany; 10μl of 5.000 I.U./ml) and separated by centrifuging (1500xg for 10 min) at 6-8°C. The plasma was stored at -20°C in plastic tubes. After blood sample collection, rats were decapitated and brains were quickly dissected. After removing the adherent blood by tissue paper and cutting off the cerebellum, the samples were fresh frozen using liquid nitrogen. Brain tissue was stored at -80°C and delivered to the different laboratories on dry ice. For mice (groups with n = 6), a similar procedure was used for the preparation of plasma and brain samples. In experiments in which AFC was co-administered with carbamazepine or ethosuximide, drug concentrations in plasma and brain were estimated to detect potential pharmacokinetic interactions. Samples from experiments with AFC were analysed at the Lead Discovery Center (Dortmund, Germany). Briefly, AFC, carbamazepine and ethosuximide were extracted from plasma and homogenized brain by protein precipitation using acetonitrile. Resulting filtrates were analysed by liquid chromatography tandem-mass spectrometry (LC-MS/MS) using a Prominence UFLC system (Shimadzu, Duisburg, Germany) coupled to a QTrap 5500 instrument (ABSciex, Darmstadt, Germany). The compounds were separated on a Zorbax Eclipse Plus C18 column (Agilent Technologies, Santa Clara, CA, USA) with an acetonitrile/water gradient containing 0.1% formic acid as solvent. Chromatographic conditions and mass spectrometer parameters were optimized for each analyte. Plasma and brain concentrations of the compounds were calculated by means of a standard curve. Data were analysed using SigmaPlot (vers. 12.0, Systat Software, Erkrath, Germany) and SPSS (IBM SPSS Statistics 20, […], Germany), respectively. Results are expressed as mean ± SEM. […] In the MES-T, the current intensity inducing tonic hindlimb extensions in 50% of the mice (CC50 values with confidence limits for 95% probability) and the statistical significance was calculated using Probit analysis (SPSS). […] In the PTZ-T, the number of animals in the group with clonic seizures and the latency time were analysed using Fisher's exact probability test and the Mann-Whitney rank sum test, respectively. For multiple comparisons of the latency time a one-way ANOVA with the Holm-Sidak post hoc test was used. The influence of AFC on the plasma and brain concentrations of the antiepileptic drugs was statistical compared using the same procedure. In the PTZ-kindling model, the mean seizure stage within a group was calculated in relation to the number of PTZ-injections. Statistical comparison between vehicle- and compound-treated groups in this model was performed with two-way repeated measures ANOVA, followed by the Holm-Sidak post hoc test. The mean number of PTZ-injections needed to produce the first generalized seizure (≥ stage 3 convulsions) in the vehicle- versus compound-treated groups was statistically compared using a Mann-Whitney rank sum test. In fully kindled rats, the calculated mean seizure stage within a group after vehicle- and compound-treatment were compared using a paired t-test. P < 0.05 was the accepted minimum level of significance.

[2] = test system: PTZ-induced seizures in fully PTZ-kindled rats; experiment: PTZ-induced seizures in fully kindled rats; settings: fully kindled rats; 20 mg/kg i.p.; pre-drug (vehicle) value 4.1
Text: Results were expressed as mean seizure stages of a tested group in which the seizure behaviour after vehicle treatment (vehicle seizure stage) and after compound treatment (compound seizure stage), examined 3-4 days later, was matched. For comparison, the effectiveness of two antiepileptic drugs (carbamazepine and valproate) was also investigated. […] Chemicals, Toronto, Canada) was slowly added. The pH was adjusted with 1N NaOH (similar amount of NaOH as HCl), all with continuous stirring. […] The drug solutions or suspensions were prepared immediately before use; all doses refer to the salts. Animals in the control group received equivalent volumes of the vehicle (in mice always 10 ml/kg, in rats 1 ml/kg [JNJ], 3 ml/kg [AFC] or 4 ml/kg [BBG, TIIAS], depending on the solubility of the different compounds). Doses and peak time effects were selected on the basis of effective doses from corresponding in vivo studies in the literature: BBG (e.g.), tanshinone IIA (e.g.) and from manufacturer's experimental data: AFC, JNJ (see, [80]). Data were analysed using SigmaPlot (vers. 12.0, Systat Software, Erkrath, Germany) and SPSS (IBM SPSS Statistics 20, […], Germany), respectively. Results are expressed as mean ± SEM. […] In the MES-T, the current intensity inducing tonic hindlimb extensions in 50% of the mice (CC50 values with confidence limits for 95% probability) and the statistical significance was calculated using Probit analysis (SPSS). […] In the PTZ-T, the number of animals in the group with clonic seizures and the latency time were analysed using Fisher's exact probability test and the Mann-Whitney rank sum test, respectively. For multiple comparisons of the latency time a one-way ANOVA with the Holm-Sidak post hoc test was used. The influence of AFC on the plasma and brain concentrations of the antiepileptic drugs was statistical compared using the same procedure. In the PTZ-kindling model, the mean seizure stage within a group was calculated in relation to the number of PTZ-injections. Statistical comparison between vehicle- and compound-treated groups in this model was performed with two-way repeated measures ANOVA, followed by the Holm-Sidak post hoc test. The mean number of PTZ-injections needed to produce the first generalized seizure (≥ stage 3 convulsions) in the vehicle- versus compound-treated groups was statistically compared using a Mann-Whitney rank sum test. In fully kindled rats, the calculated mean seizure stage within a group after vehicle- and compound-treatment were compared using a paired t-test. P < 0.05 was the accepted minimum level of significance.

[3] = test system: electroshock-induced tonic (hindlimb extension) seizures; experiment: Maximal electroshock seizure threshold test (MES-T); settings: mice; carbamazepine 7 mg/kg i.p. alone, 30 min before
Method: The stimulus train was applied via ear-clip electrodes (sinusoidal pulses 4-14 mA, 50 Hz, 0.2 s duration) by means of a constant current stimulator (rodent-shocker type 221; Hugo Sachs Elektronik, March-Hugstetten, Germany). […] Groups of 20 mice were used. Control groups, which received the corresponding vehicle, were tested together with the compound-treated groups on the same experimental day. Current intensity-effect curves were obtained on the basis of the number of animals responding with the endpoint at the corresponding current value. The results are calculated as convulsive current fifty (CC50) values (current intensity in mA, necessary to produce tonic hindlimb extension in 50% of the mice tested) including the confidence limits for 95% probability. […] Chemicals, Toronto, Canada) was slowly added. The pH was adjusted with 1N NaOH (similar amount of NaOH as HCl), all with continuous stirring. […] The drug solutions or suspensions were prepared immediately before use; all doses refer to the salts. Animals in the control group received equivalent volumes of the vehicle (in mice always 10 ml/kg, in rats 1 ml/kg [JNJ], 3 ml/kg [AFC] or 4 ml/kg [BBG, TIIAS], depending on the solubility of the different compounds). Doses and peak time effects were selected on the basis of effective doses from corresponding in vivo studies in the literature: BBG (e.g.), tanshinone IIA (e.g.) and from manufacturer's experimental data: AFC, JNJ (see, [80]). Data were analysed using SigmaPlot (vers. 12.0, Systat Software, Erkrath, Germany) and SPSS (IBM SPSS Statistics 20, […], Germany), respectively. Results are expressed as mean ± SEM. […] In the PTZ-T, the number of animals in the group with clonic seizures and the latency time were analysed using Fisher's exact probability test and the Mann-Whitney rank sum test, respectively. […] In the PTZ-kindling model, the mean seizure stage within a group was calculated in relation to the number of PTZ-injections. […] In fully kindled rats, the calculated mean seizure stage within a group after vehicle- and compound-treatment were compared using a paired t-test. […]

Structure (SMILES): NC(=O)N1c2ccccc2C=Cc2ccccc21 [carbamazepine]
- plasma concentrations of CBZ on co-application of AFC ([1]; AFC 25 or 50 mg/kg s.c.): not significantly modulated
- concentration at 30 min ([1]; 7 mg/kg, n = 6, read-out: brain concentration of CBZ alone): 22.8 ± 1.5 µM
- concentration at 30 min ([1]; n = 6, significantly lowered, read-out: brain concentration of CBZ with AFC 25 mg/kg s.c.): 16.2 ± 0.6 µM
- concentration at 30 min ([1]; n = 6, significantly lowered, read-out: brain concentration of CBZ with AFC 50 mg/kg s.c.): 17.2 ± 1.7 µM
- mean seizure stage, post-drug [2]: 2.3
- increase of the electroconvulsive threshold [3]: about 50%
